Tested on: Her2 receptor expression at the surface of SKBr3 cells
Experiment: phenotypic SKBr3/HER2 cell test (Her2 surface expression by flow cytometry)
Assay type: cell-based
Details: Homo sapiens, SK-BR-3, 24 h incubation, inhibition of Her2 expression
Protocol: The cellular activity of the compounds can in particular be evaluated by means of the phenotypic “SKBr3/HER2” cell test described below:
The SKBr3 […] adenocarcinoma cells, overexpressing the Her2 tyrosine kinase receptor, originate from the ATCC (HTB-30) and are cultured in McCoy's 5A medium supplemented with 10% FBS and 1% L-glutamine.
The cells are seeded in 12-well plates at a proportion of 125 000 cells per well in 1 ml of complete medium. The following day, the products are added at varying concentrations. After incubation for 24 h, the cells are trypsinized, washed with PBS and incubated with 100 ng of anti-Her2 antibody coupled to PE (Phycoerythrin) (BD 340552) for 30 minutes at 4° C. in the dark. The fluorescence due to the expression of the Her2 receptor at the surface of the cells is then read using a FACS Calibur flow cytometer (Becton-Dickinson). The percentage inhibition of Her2 expression as a function of the concentrations of product tested is fitted by the nonlinear regression technique (XLfit, equation 205) in order to measure an IC50 for each product.

SMILES	IC50
NC(=O)c1ccc(-n2c3ccccc3c3c(-c4cnc5ccccc5c4)cccc32)cn1 [Example 78, 5-[4-(quinolin-3-yl)-9H-carbazol-9-yl]pyridin-2-amide]	1000 to 10000 nM
NC(=O)c1ncc(-n2c3ccccc3c3c(-c4nc5ccc(F)cc5[nH]4)cccc32)cc1NC1CCOCC1 [Example 136]	< 1000 nM
CC1(C)CC(Nc2cc(-n3c4ccccc4c4c(-c5cnc6ccccc6c5)cccc43)ccc2C(N)=O)CC(C)(C)N1 [Example 84, 4-[4-(quinolin-3-yl)-9H-carbazol-9-yl]-2-(2,2,6,6-tetramethyl-1H-piperidin-4-ylamino]benzamide]	< 1000 nM
NC(=O)c1ccc(-n2c3ccccc3c3c(-c4cnc5ccccc5c4)cccc32)cc1NCCn1ccnc1 [Example 87, 2-[2-(1H-imidazol-1-yl)ethylamino]-4-[4-(quinolin-3-yl)-9H-carbazol-9-yl]benzamide]	< 1000 nM
CN1C(C)(C)CC(Nc2cc(-n3c4ccccc4c4c(-c5cnc6ccccc6c5)cccc43)cnc2C(N)=O)CC1(C)C [Example 122]	< 1000 nM
CC(C)(O)CCNc1cc(-n2c3ccccc3c3c(-c4cnc5ccccc5c4)cccc32)ccc1C(N)=O [Example 72, 2-(3-hydroxy-3-methylbutylamino)-4-[4-(quinolin-3-yl)-9H-carbazol-9-yl]benzamide]	< 1000 nM
CC1(C)CC(Nc2cc(-n3c4ccccc4c4c(-c5cnc6ccccc6c5)cccc43)cnc2C(N)=O)CC(C)(C)N1 [Example 132, 5-[4-(quinolin-3-yl)-9H-carbazol-9-yl)-3-(2,2,6,6-tetramethylpiperidin-4-ylamino)pyridine-2-carboxamide]	1000 to 10000 nM
NC(=O)c1ccc(-n2c3ccccc3c3c(-c4nc5ccc(F)cc5[nH]4)cccc32)cc1NCC1(O)CC1 [Example 114, 4-[4-(6-fluoro-1H-benzimidazol-2-yl)-9H-carbazol-9-yl]-2-[(1-hydroxycyclopropan-1-yl)methylamino]benzamide]	< 1000 nM
NC(=O)c1ccc(-n2c3ccccc3c3c(-c4nc5ccc(F)cc5[nH]4)cccc32)cc1NCc1ccccn1 [Example 81, 4-[4-(6-fluoro-1H-benzimidazol-2-yl)-9H-carbazol-9-yl]-2-[(pyridin-2-ylmethyl)amino]benzamide]	< 1000 nM
NC(=O)c1ccc(-n2c3ccccc3c3c(-c4nc5cc(F)ccc5[nH]4)cccc32)cc1N[C@H]1CCCC[C@@H]1CO (single isomer, unassigned) [Example 130]	< 1000 nM
NC(=O)c1ccc(-n2c3ccccc3c3c(-c4cnc5ccccc5c4)cccc32)cc1NCC1(O)CC1 [Example 121, 4-[4-(quinolin-3-yl)-9H-carbazol-9-yl]-2-[(1-hydroxycyclopropan-1-yl)methylamino]benzamide]	< 1000 nM
NC(=O)c1cnc(-n2c3ccccc3c3c(-c4cnc5ccccc5c4)cccc32)cc1NC1CCOCC1 [Example 137]	< 1000 nM
NC(=O)c1ccc(-n2c3ccccc3c3c(-c4cnc5ccccc5c4)cccc32)cc1NC1CCOCC1 [Example 113]	< 1000 nM
CC1(C)CC(Nc2cc(-n3c4ccccc4c4c(-c5nc6ccc(F)cc6[nH]5)cccc43)ccc2C(N)=O)CC(C)(C)N1 [Example 83]	< 1000 nM
NCC(=O)O[C@H]1CC[C@H](Nc2cc(-n3c4ccccc4c4c(-c5cnc6ccccc6c5)cccc43)cnc2C(N)=O)CC1 [Example 128, aminoacetic acid 4-trans-{[2-carbamoyl-5-(quinolin-3-yl)-9H-carbazol-9-yl]pyridin-3-ylamino}cyclohexyl ester]	< 1000 nM
Cn1cc(CNc2cc(-n3c4ccccc4c4c(-c5nc6ccc(F)cc6[nH]5)cccc43)ccc2C(N)=O)cn1 [Example 115, 4-[4-(6-fluoro-1H-benzimidazol-2-yl)-9H-carbazol-9-yl]-2-[(1-methyl-1H-pyrazol-4-yl)methylamino]benzamide]	< 1000 nM
NC(=O)c1cnc(-n2c3ccccc3c3c(-c4cnc5ccccc5c4)cccc32)cc1N[C@H]1CC[C@H](O)CC1 [Example 142, 2-[4-(quinolin-3-yl)-9H-carbazol-9-yl]-4-(4-trans-hydroxycyclohexylamino)pyridine-5-carboxamide]	< 1000 nM
NC(=O)c1ccc(-n2c3ccccc3c3c(-c4cnc5ccccc5c4)cccc32)cc1NCc1cccnc1 [Example 105, 2-[(pyridin-3-ylmethyl)amino]-4-[4-(quinolin-3-yl)-9H-carbazol-9-yl]benzamide]	< 1000 nM

SMILES	IC50
NC(=O)c1ccc(-n2c3ccccc3c3c(-c4nc5ccc(F)cc5[nH]4)cccc32)cc1NCCc1cccnc1 [Example 106, 4-[4-(6-fluoro-1H-benzimidazol-2-yl)-9H-carbazol-9-yl]-2-[2-(pyridin-3-yl)-ethylamino]benzamide]	< 1000 nM
CC(C)(C)OC(=O)N1CCC(Nc2cc(-n3c4ccccc4c4c(-c5cnc6ccccc6c5)cccc43)ccc2C(N)=O)CC1 [Example 123]	1000 to 10000 nM
NC(=O)c1ccc(-n2c3ccccc3c3c(-c4cnc5ccccc5c4)cccc32)cc1NCCCF [Example 76, 2-(3-fluoropropylamino)-4-[4-(quinolin-3-yl)-9H-carbazol-9-yl]benzamide]	< 1000 nM
Cn1cnc(CNc2cc(-n3c4ccccc4c4c(-c5nc6ccc(F)cc6[nH]5)cccc43)ccc2C(N)=O)c1 [Example 110, 4-[4-(6-fluoro-1H-benzimidazol-2-yl)-9H-carbazol-9-yl]-2-[(1-methyl-1H-imidazol-4-yl)methylamino]benzamide]	< 1000 nM
NC(=O)c1ccc(-n2c3ccccc3c3c(-c4cncc(O)c4)cccc32)cc1N[C@H]1CC[C@H](O)CC1 [Example 73, 2-[(4-trans-hydroxycyclohexyl)amino]-4-[4-(5-hydroxypyridin-3-yl)-9H-carbazol-9-yl]benzamide]	< 1000 nM
CN1CCC(O)(CNc2cc(-n3c4ccccc4c4c(-c5cnc6ccccc6c5)cccc43)ccc2C(N)=O)CC1 [Example 103, 2-[(4-hydroxy-1-methylpiperidin-4-ylmethyl)-amino]-[4-(quinolin-3-yl)-9H-carbazol-9-yl]benzamide]	< 1000 nM
CC(C)(O)CNc1cc(-n2c3ccccc3c3c(-c4nc5ccc(F)cc5[nH]4)cccc32)ccc1C(N)=O [Example 90, 4-[4-(6-fluoro-1H-benzimidazol-2-yl)-9H-carbazol-9-yl]-2-(2-hydroxy-2-methylpropylamino)benzamide]	< 1000 nM
CN1CCC(O)(CCNc2cc(-n3c4ccccc4c4c(-c5nc6ccc(F)cc6[nH]5)cccc43)ccc2C(N)=O)CC1 [Example 70, 4-[4-(6-fluoro-1H-benzimidazol-2-yl)-9H-carbazol-9-yl]-2-[2-(4-hydroxy-1-methylpiperidin-4-yl)ethylamino]benzamide]	< 1000 nM
NC(=O)c1ccc(-n2c3ccccc3c3c(-c4nc5ccc(F)cc5[nH]4)cccc32)cc1NCCn1ccnc1 [Example 82, 4-[4-(6-fluoro-1H-benzimidazol-2-yl)-9H-carbazol-9-yl]-2-[2-(1H-imidazol-1-yl]ethylamino]benzamide]	< 1000 nM
CN1C(C)(C)CC(Nc2cc(-n3c4ccccc4c4c(-c5nc6ccc(F)cc6[nH]5)cccc43)ccc2C(N)=O)CC1(C)C [Example 85, 4-[4-(6-fluoro-1H-benzimidazol-2-yl)-9H-carbazol-9-yl]-2-(1,2,2,6,6-pentamethyl-1H-piperidin-4-ylamino]benzamide]	< 1000 nM
NC(=O)c1ccc(-n2c3ccccc3c3c(-c4cnc5ccccc5c4)cccc32)cc1NCc1cocn1 [Example 94, 2-[(oxazol-4-ylmethyl)amino]-4-[4-(quinolin-3-yl)-9H-carbazol-9-yl]benzamide]	< 1000 nM
NC(=O)c1ccc(-n2c3ccccc3c3c(-c4nc5ccc(F)cc5[nH]4)cccc32)cc1NCCc1ccccn1 [Example 79, 4-[4-(6-fluoro-1H-benzimidazol-2-yl)-9H-carbazol-9-yl]-2-[2-(pyridin-2-yl)ethylamino]benzamide]	< 1000 nM
CC(C)(O)CNc1cc(-n2c3ccccc3c3c(-c4cnc5ccccc5c4)cccc32)cnc1C(N)=O [Example 139]	< 1000 nM
Cn1cc(CNc2cc(-n3c4ccccc4c4c(-c5cnc6ccccc6c5)cccc43)ccc2C(N)=O)cn1 [Example 119, 2-[(1-methyl-1H-pyrazol-4-yl)methylamino]-4-[4-(quinolin-3-yl)-9H-carbazol-9-yl]benzamide]	< 1000 nM
CN1C(C)(C)CC(Nc2cc(-n3c4ccccc4c4c(-c5ccc(C#N)nc5)cccc43)ccc2C(N)=O)CC1(C)C [Example 127, 4-[4-(6-cyanopyridin-3-yl)-9H-carbazol-9-yl]-2-[(1,2,2,6,6-pentamethylpiperidin-4-yl)amino]benzamide]	< 1000 nM
NC(=O)c1ccc(-n2c3ccccc3c3c(-c4nc5ccc(F)cc5[nH]4)cccc32)cc1NCCC1(O)CCCC1 [Example 71, 4-[4-(6-fluoro-1H-benzimidazol-2-yl)-9H-carbazol-9-yl]-2-[2-(1-hydroxycyclopentyl)ethylamino]benzamide]	< 1000 nM
NC(=O)c1ccc(-n2c3ccccc3c3c(-c4cnc5ccccc5c4)cccc32)cc1N[C@H]1CCCC[C@H]1CO (racemic) [Example 101, 2-[1(S,R),2(R,S)-2-hydroxymethylcyclohexyl-1-amino]-4-[4-(quinolin-3-2-yl)-9H-carbazol-9-yl]benzamide]	< 1000 nM
NC(=O)c1ccc(-n2c3ccccc3c3c(-c4nc5ccc(F)cc5[nH]4)cccc32)cc1N[C@H]1CCC[C@H]1CO (racemic) [Example 118, 4-[4-(6-fluoro-1H-benzimidazol-2-yl)-9H-carbazol-9-yl]-2-[2(R,S)-hydroxymethylcyclopentan-1(S,R)-amino]benzamide]	< 1000 nM

— US8309721B2, “HSP90 inhibitory carbazole derivatives, compositions containing same and use thereof” (Sanofi, priority 2008, dated 2012)
